Results: patent US20050234065A1, “Dipeptidyl peptidase-IV inhibitors” (Pfizer Inc, priority 2004, published 2005)
“And” between values parts separate entries of the source, which are not always exact repeats. Equal values may be shown once. Where a name gives a salt, the structure may show the parent alone.

Tests used:
[1] = biological target: T1, DPP-IV (Homo sapiens, UniProt P27487); assay: In vitro assay for dipeptidyl peptidase inhibition; assay type: biochemical; conditions: hydrochloride salts; Gly-Pro-4-methoxy B naphthylamide substrate; overnight at 37° C.; read-out: IC50 (concentration of test compound required for 50% inhibition)
T1 construct: purchased Enzyme Systems Products SPE-01
Method in brief: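 DPP-IV at 50 μU/mL with 50 μM Gly-Pro-4-methoxy-β-naphthylamide in 50 mM Tris pH 7.3, 0.1 M NaCl, 0.1% Triton. Final compound concentrations 3 μM–10 nM. Incubated overnight (about 14–18 h) at 37 °C.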

[2] = tested on: KK/H1J mice; assay: In vivo assay for glucose lowering (oral glucose tolerance test); conditions: fasted KK/H1J mice
Source text: The glucose lowering effects of DPP-IV inhibitors for some compounds of the present invention were exemplified in 4-6 week old KK/H1J mice (Jackson Labs) in the context of an oral glucose tolerance test. Oral glucose tolerance tests (“OGTT”) have been in use in humans since, at least, the 1930s, Pincus et al., Am. J. Med. Sci, 188: 782 (1934), and are routinely used in the diagnosis of human diabetes, though not to evaluate the efficacy of therapeutic agents in patients. KK mice have been used to evaluate glitazones (Fujita et al. Diabetes 32:804-810 (1983); Fujiwara et al., Diabetes 37: 1549-48 (1988); Izumi et al. Biopharm Drug. Dispos. 18:247-257 (1997)), metformin (Reddi et al. Diabet. Metabl. 19:44-51 (1993)), glucosidase inhibitors (Hamada et al. Jap. Pharmacol. Ther. 17:17-28 (1988); Matsuo et al. Am. J. Clin. Nutr. 55:314S-317S (1992)), and the extra-pancreatic effects of sulfonylureas (Kameda et al Arzneim. Forsch./Drug Res. 32:39044 (1982); Muller et al. Horm. Metabl. Res. 28:469-487 (1996)).
KK mice are derived from an inbred line first established by Kondo et al. (Kondo et al. Bull. Exp. Anim. 6:107-112 (1957)).
The mice were fasted overnight (about 14-18 hours), but allowed free access to water. […] The blood samples were centrifuged, the plasma collected and analyzed for glucose content on a Roche-Hitachi 912 glucose analyzer. […]

T1 sequence (P27487 whole entry, species assumed): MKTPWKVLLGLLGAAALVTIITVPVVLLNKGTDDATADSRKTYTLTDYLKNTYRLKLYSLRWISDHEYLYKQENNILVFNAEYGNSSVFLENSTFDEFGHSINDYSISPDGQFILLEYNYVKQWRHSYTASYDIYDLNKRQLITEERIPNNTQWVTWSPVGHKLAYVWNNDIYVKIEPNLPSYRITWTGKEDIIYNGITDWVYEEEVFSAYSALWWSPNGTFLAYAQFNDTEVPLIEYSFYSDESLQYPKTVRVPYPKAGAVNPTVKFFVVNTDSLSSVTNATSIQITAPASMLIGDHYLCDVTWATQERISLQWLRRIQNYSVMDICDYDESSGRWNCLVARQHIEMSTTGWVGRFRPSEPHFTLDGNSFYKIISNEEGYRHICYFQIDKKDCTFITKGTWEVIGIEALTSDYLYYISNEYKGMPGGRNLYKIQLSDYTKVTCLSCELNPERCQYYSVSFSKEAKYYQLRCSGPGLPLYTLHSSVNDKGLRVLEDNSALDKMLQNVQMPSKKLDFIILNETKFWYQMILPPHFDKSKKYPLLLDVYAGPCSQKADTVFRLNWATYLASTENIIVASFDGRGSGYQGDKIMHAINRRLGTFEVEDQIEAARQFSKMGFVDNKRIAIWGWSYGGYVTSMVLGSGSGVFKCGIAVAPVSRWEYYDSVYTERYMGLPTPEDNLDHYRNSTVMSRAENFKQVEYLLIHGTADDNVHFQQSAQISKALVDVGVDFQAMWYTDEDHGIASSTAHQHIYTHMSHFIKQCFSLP

**Q.** With `N[C@H](C(=O)N1CCCC1)[C@H]1CC[C@H](N2C(=O)c3ccncc3C2=O)CC1` [Example 23, 2-[trans-4-((1S)-1-amino-2-oxo-2-pyrrolidin-1-yl-ethyl)-cyclohexyl]-pyrrolo[3,4-c]pyridine-1,3-dione] as the compound, how does the IC50 [1] read?
**A.** Its IC50 is 18 nM and ≤ 100 nM.

**Q.** What about the “percent (%) inhibition of glucose excursion” value ([2]; oral dose level of 5 mg/kg, plasma glucose at t=45 minutes) of the same compound?
**A.** The value was “about 65%”.

**Q.** Which IC50 [1] does the source give for `N[C@H](C(=O)N1CCCC1)[C@H]1CC[C@H](NC(=O)[C@@H]2C[C@@H](O)CN2C(=O)NCc2ccccc2)CC1` [Example 26, (2S,4R)-4-hydroxy-pyrrolidine-1,2-dicarboxylic acid 2-{[trans-4-((1S)-1-Amino-2-oxo-2-pyrrolidin-1-yl-ethyl)-cyclohexyl]-amide}1-benzylamide] here?
**A.** Its IC50 is no more than 100 nM.

**Q.** What about the “glucose lowering / inhibition of glucose excursion (in words)” value ([2]; oral dosing, dose not stated) of the same compound?
**A.** Its value is “did not demonstrate inhibition”.

**Q.** For `Nc1nccnc1C(=O)N[C@H]1CC[C@H]([C@H](N)C(=O)N2CCSC2)CC1` (as salt: hydrochloride) [Example 35, (S)-3-amino-pyrazine-2-carboxylic acid [trans-4-(1-amino-2-oxo-2-thiazolidin-3-yl-ethyl)-cyclohexyl]-amide], which melting point is on record?
**A.** The melting point was 133.4 to 134.7 °C.
